Key:
[1] = system: Neuroblastoma Cell, Neuro 2a Strain; experiment: Effect on proliferation / neurite propagation of neuroblastoma cell, Neuro 2a strain; assay type: cell-based, mouse; conditions: for activity (in words): 24 hours cultivation; for minimal effective concentration: 48 hours after addition
Description: Experiments for confirming the activity of the present compound for promoting propagation of neurites will be explained below.
Effect On Proliferation of Neuroblastoma Cell, Neuro 2a Strain
Neuro 2a was floated on culture medium consisting of 90% of Dulbecco's Modified Eagle's Midium, and 10% of fetal calf serum (FCS), and containing 100 units/ml of penicillin G and 100 micro g/ml of streptomycin sulfate, and then cultivated at 37° C. in a carbon dioxide incubator containing air into which 5% of carbon dioxide was incorporated. The vessel as used was a polystyrene tray having a diameter of 60 mm. 1 to 2×10^4 of the neuroblastoma cells were implanted in each tray and cultivated for 48 hours. The FCS-containing culture was removed from the resultant cell culture. […] When 24 and 48 hours had passed after the addition of these medicines, the number of the living cells increased in the culture, the number of the neurites increased, and the length of the neurites were measured. The experiment was conducted on three trays with respect to each concentration. The resultant data were expressed by average value+standard error (S.E).

ddy male mice = experiment: Acute toxicity test, intravenous injection; assay type: in vivo, mouse; conditions: ddy male mice of 45 weeks age
Description: Acute toxicity test was conducted by intravenously injecting the compounds into ddy male mice of 45 weeks age.

For `CC(=O)NC1C(O)CC(OC2CCC3(C)C(=CCC4C3CCC3(C)C(C(C)CCCC(C)C)CCC43)C2)(C(=O)O)OC1C(O)C(O)CO` [Compound (4), sodium 5-acetoamide-2-O-(5-cholesten-3-yl)-3,5-dideoxy-alpha-D-glycero-D-galacto-2-nonulopyranosonate], the “activity (in words)” value ([1]; 10 ng/ml) was “indicated activity”, the “Length of neurite ± S.E.” value ([1]; 24 hrs, 10 ng/ml) was 92.4 ± 5.31 μm/cell and the “Number of neurite propagated cells” value ([1]; 24 hrs, 10 ng/ml) was 131. For the same compound, the “Number of neurites ± S.E.” value ([1]; 24 hrs, 10 ng/ml) was 1.2 ± 0.04 number/cell, the “Rate of neurite propagation (%)” value ([1]; 24 hrs, 10 ng/ml) was 31.5% and the “Total number of cells” value ([1]; 24 hrs, 10 ng/ml) was 416. For the same compound, the “Length of neurite ± S.E.” value ([1]; 24 hrs, 100 ng/ml) was 96.7 ± 4.12 μm/cell, the “Number of neurite propagated cells” value ([1]; 24 hrs, 100 ng/ml) was 177 and the “Number of neurites ± S.E.” value ([1]; 24 hrs, 100 ng/ml) was 1.2 ± 0.03 number/cell. The “Rate of neurite propagation (%)” value ([1]; 24 hrs, 100 ng/ml) was 41.5%, the “Total number of cells” value ([1]; 24 hrs, 100 ng/ml) was 427 and the “Length of neurite ± S.E.” value ([1]; 24 hrs, 1 μg/ml) was 130.4 ± 6.12 μm/cell. For the same compound, the “Number of neurite propagated cells” value ([1]; 24 hrs, 1 μg/ml) was 190, the “Number of neurites ± S.E.” value ([1]; 24 hrs, 1 μg/ml) was 1.2 ± 0.03 number/cell and the “Rate of neurite propagation (%)” value ([1]; 24 hrs, 1 μg/ml) was 50.9%. For the same compound, the “Total number of cells” value ([1]; 24 hrs, 1 μg/ml) was 373, the minimal effective concentration [1] was 10 ng/mL and the “Length of neurite ± S.E.” value ([1]; 48 hrs, 10 ng/ml) was 121.9 ± 5.18 μm/cell. The “Number of neurite propagated cells” value ([1]; 48 hrs, 10 ng/ml) was 219, the “Number of neurites ± S.E.” value ([1]; 48 hrs, 10 ng/ml) was 1.2 ± 0.03 number/cell and the “Rate of neurite propagation (%)” value ([1]; 48 hrs, 10 ng/ml) was 46.9%. The “Total number of cells” value ([1]; 48 hrs, 10 ng/ml) was 467, the “Length of neurite ± S.E.” value ([1]; 48 hrs, 100 ng/ml) was 126.0 ± 6.10 μm/cell and the “Number of neurite propagated cells” value ([1]; 48 hrs, 100 ng/ml) was 193. The “Number of neurites ± S.E.” value ([1]; 48 hrs, 100 ng/ml) was 1.2 ± 0.04 number/cell, the “Rate of neurite propagation (%)” value ([1]; 48 hrs, 100 ng/ml) was 47.8% and the “Total number of cells” value ([1]; 48 hrs, 100 ng/ml) was 404. For the same compound, the “Length of neurite ± S.E.” value ([1]; 48 hrs, 1 μg/ml) was 156.3 ± 8.32 μm/cell, the “Number of neurite propagated cells” value ([1]; 48 hrs, 1 μg/ml) was 182 and the “Number of neurites ± S.E.” value ([1]; 48 hrs, 1 μg/ml) was 1.2 ± 0.04 number/cell. The “Rate of neurite propagation (%)” value ([1]; 48 hrs, 1 μg/ml) was 49.3%, the “Total number of cells” value ([1]; 48 hrs, 1 μg/ml) was 369 and the “growth / propagation of neurites (in words)” value ([1]; Neuro 2a culture) was “strong activity for the propagation of the neurites”. The “activity relative to GMl (times as high)” value ([1]; vs GMl, from minimal effective concentrations at 48 hours, molecular weights considered) was 420 times, the “activity relative to GQlb (times as high)” value ([1]; vs GQlb, from minimal effective concentrations at 48 hours, molecular weights considered) was 270 times and the LD50 (ddy male mice) was 93 mg/kg.

For “Gal (beta 1-3) GalNac (beta 1-4 ) <NAcNeu-(alpha2-3)>Gal (beta 1-4) Glc (beta 1-1)-Ceramide [GM1]”, the “activity (in words)” value [1] was “do not provide any activity”, the “Length of neurite ± S.E.” value ([1]; 24 hrs, 10 ng/ml) was 94.9 ± 6.64 μm/cell and the “Number of neurite propagated cells” value ([1]; 24 hrs, 10 ng/ml) was 145. For the same compound, the “Number of neurites ± S.E.” value ([1]; 24 hrs, 10 ng/ml) was 1.4 ± 0.05 number/cell, the “Rate of neurite propagation (%)” value ([1]; 24 hrs, 10 ng/ml) was 43.4% and the “Total number of cells” value ([1]; 24 hrs, 10 ng/ml) was 334. For the same compound, the “Length of neurite ± S.E.” value ([1]; 24 hrs, 100 ng/ml) was 101.1 ± 5.09 μm/cell, the “Number of neurite propagated cells” value ([1]; 24 hrs, 100 ng/ml) was 142 and the “Number of neurites ± S.E.” value ([1]; 24 hrs, 100 ng/ml) was 1.4 ± 0.06 number/cell. For the same compound, the “Rate of neurite propagation (%)” value ([1]; 24 hrs, 100 ng/ml) was 47.8%, the “Total number of cells” value ([1]; 24 hrs, 100 ng/ml) was 297 and the “Length of neurite ± S.E.” value ([1]; 24 hrs, 1 μg/ml) was 109.7 ± 6.44 μm/cell. The “Number of neurite propagated cells” value ([1]; 24 hrs, 1 μg/ml) was 140, the “Number of neurites ± S.E.” value ([1]; 24 hrs, 1 μg/ml) was 1.4 ± 0.06 number/cell and the “Rate of neurite propagation (%)” value ([1]; 24 hrs, 1 μg/ml) was 42.2%. For the same compound, the “Total number of cells” value ([1]; 24 hrs, 1 μg/ml) was 332, the “Length of neurite ± S.E.” value ([1]; 24 hrs, 10 μg/ml) was 89.3 ± 4.77 μm/cell and the “Number of neurite propagated cells” value ([1]; 24 hrs, 10 μg/ml) was 149. The “Number of neurites ± S.E.” value ([1]; 24 hrs, 10 μg/ml) was 1.4 ± 0.05 number/cell, the “Rate of neurite propagation (%)” value ([1]; 24 hrs, 10 μg/ml) was 45.8% and the “Total number of cells” value ([1]; 24 hrs, 10 μg/ml) was 325. The “Length of neurite ± S.E.” value ([1]; 24 hrs, 100 μg/ml) was 90.5 ± 3.88 μm/cell, the “Number of neurite propagated cells” value ([1]; 24 hrs, 100 μg/ml) was 172 and the “Number of neurites ± S.E.” value ([1]; 24 hrs, 100 μg/ml) was 1.8 ± 0.06 number/cell. The “Rate of neurite propagation (%)” value ([1]; 24 hrs, 100 μg/ml) was 55.5%, the “Total number of cells” value ([1]; 24 hrs, 100 μg/ml) was 310 and the minimal effective concentration [1] was 10 micro g/ml. The “Length of neurite ± S.E.” value ([1]; 48 hrs, 10 ng/ml) was 93.7 ± 5.07 μm/cell, the “Number of neurite propagated cells” value ([1]; 48 hrs, 10 ng/ml) was 194 and the “Number of neurites ± S.E.” value ([1]; 48 hrs, 10 ng/ml) was 1.4 ± 0.05 number/cell. The “Rate of neurite propagation (%)” value ([1]; 48 hrs, 10 ng/ml) was 58.3%, the “Total number of cells” value ([1]; 48 hrs, 10 ng/ml) was 333 and the “Length of neurite ± S.E.” value ([1]; 48 hrs, 100 ng/ml) was 108.8 ± 5.97 μm/cell. For the same compound, the “Number of neurite propagated cells” value ([1]; 48 hrs, 100 ng/ml) was 156, the “Number of neurites ± S.E.” value ([1]; 48 hrs, 100 ng/ml) was 1.4 ± 0.06 number/cell and the “Rate of neurite propagation (%)” value ([1]; 48 hrs, 100 ng/ml) was 44.7%. For the same compound, the “Total number of cells” value ([1]; 48 hrs, 100 ng/ml) was 349, the “Length of neurite ± S.E.” value ([1]; 48 hrs, 1 μg/ml) was 109.2 ± 6.09 μm/cell and the “Number of neurite propagated cells” value ([1]; 48 hrs, 1 μg/ml) was 211. The “Number of neurites ± S.E.” value ([1]; 48 hrs, 1 μg/ml) was 1.3 ± 0.04 number/cell, the “Rate of neurite propagation (%)” value ([1]; 48 hrs, 1 μg/ml) was 59.9% and the “Total number of cells” value ([1]; 48 hrs, 1 μg/ml) was 352. For the same compound, the “Length of neurite ± S.E.” value ([1]; 48 hrs, 10 μg/ml) was 113.8 ± 5.49 μm/cell, the “Number of neurite propagated cells” value ([1]; 48 hrs, 10 μg/ml) was 205 and the “Number of neurites ± S.E.” value ([1]; 48 hrs, 10 μg/ml) was 1.3 ± 0.04 number/cell. For the same compound, the “Rate of neurite propagation (%)” value ([1]; 48 hrs, 10 μg/ml) was 62.1%, the “Total number of cells” value ([1]; 48 hrs, 10 μg/ml) was 330 and the “Length of neurite ± S.E.” value ([1]; 48 hrs, 100 μg/ml) was 98.9 ± 5.22 μm/cell. The “Number of neurite propagated cells” value ([1]; 48 hrs, 100 μg/ml) was 193, the “Number of neurites ± S.E.” value ([1]; 48 hrs, 100 μg/ml) was 1.5 number/cell and the “Rate of neurite propagation (%)” value ([1]; 48 hrs, 100 μg/ml) was 60.9%. The “Total number of cells” value ([1]; 48 hrs, 100 μg/ml) was 317.

Reference: patent US5023239A, “Sialosyl cholesterol, process for producing the same, and neuropathy remedy comprising the same” (MECT Corporation, priority 1986, dated 1991)
